Read-outs that look alike come from different tables or passages of the source.
Tests used:
intracellular MRSA = format: cell-based, Staphylococcus aureus; details: for %GFP+ rep 1 / z-scoreMRSA+ rep 1: replicate 1; for %GFP+ rep 2 / z-scoreMRSA+ rep 2: replicate 2; for %GFP+ rep 3 / z-scoreMRSA+ rep 3: replicate 3; for z-scoreMRSA+ mean: mean of 3 replicates
Procedure: (§1) The cells were resuspended in cell culture medium without antibiotics, seeded with 10,000 cells/well into Costar flat-bottom 96-well plates (Corning, Amsterdam, the Netherlands), and were incubated overnight at 37°C/5% CO2. The next day, the bacteria were centrifuged at ≥1800 g for 15 min and resuspended in cold PBS + 5 mM ethylenediaminetetraacetic acid (EDTA). The number of CFUs present in the bacterial suspension was estimated from the optical density at 600 nm (OD600) by assuming 8x10^8 CFUs to be present in a bacterial suspension with OD600 = 1, based on prior titrations. The bacterial suspension was diluted in cell culture medium without antibiotics and added to the cells. Accuracy of the multiplicity of infection (MOI) was validated by plating serial dilutions of the MRSA inoculums on Difco TS agar plates (BD Biosciences). The calculated mean MOI throughout all experiments was 6.8 ± 4.6 (mean ± SD). Infected cells were centrifuged for 3 min at 150 g and incubated for 1 hour at 37°C/5% CO2. Next, the cells were incubated with fresh cell culture medium supplemented with 30 µg/ml gentamicin sulphate (Lonza BioWhittaker, Basel, Switzerland) for 15 min at 37°C/5% CO2 to kill residual extracellular bacteria. Infected cells were incubated overnight at 37°C/5% CO2 in cell culture medium in the presence of kinase inhibitors and 5 µg/ml gentamicin sulphate-containing medium to prevent the growth of extracellular bacteria. The solvent of the compounds, DMSO, was used at equal % v/v as a negative control. For the screen, each compound was tested in triplicate, on separate cell culture plates, resulting in triplicate values for each kinase inhibitor.
(§2) HeLa cells were harvested by trypsinization and fixed with 1% paraformaldehyde. Samples were measured on a FACSLyric with HTS extension (BD Biosciences). Flow cytometry data were analysed using FlowJo version 10 (TreeStar, Ashland, OR, USA). HeLa cells positive for GFP were gated to calculate the percentage of MRSA-infected cells. The cell count was used as surrogate readout of cell viability.
To identify potential “hit” compounds, the flow cytometry data were used to calculate standard z-scores using z = (x-μ)/σ – zneg, where x is total event count or the percent of GFP-positive cells from a single well, μ is the mean from wells of the plate, σ is the standard deviation of the plate and zneg is the mean z-score of the negative control of the plate (i.e., DMSO) ([Korbee et al., 2018]). To minimize the possibility that the presence of extreme values on a plate affected the z-scores, raw values that deviated two-fold from the negative controls were excluded when calculating plate means and standard deviations as used in the aforementioned formula. Compounds were considered a “hit” when z-scoreMRSA+ ≤ -2 and z-scoreHeLa ≥ -3 for cell count. In cases where compounds were screened twice, the average values were used to select hit compounds.

HeLa cells = assay: Compound screen by flow cytometry: HeLa cell count as surrogate readout of cell viability (z-scoreHeLa); format: cell-based, human
Procedure: as §1, §2
To minimize the possibility that the presence of extreme values on a plate affected the z-scores, raw values that deviated two-fold from the negative controls were excluded when calculating plate means and standard deviations as used in the aforementioned formula. Compounds were considered a “hit” when z-scoreMRSA+ ≤ -2 and z-scoreHeLa ≥ -3 for cell count. In cases where compounds were screened twice, the average values were used to select hit compounds.

[1] = PKIS compounds raw data, MRSA-infected HeLa cells
[2] = Yes/No: effect without cell death
[3] = compound screen, MRSA-infected HeLa cells
[4] = PKIS compounds raw data, replicate 1, HeLa cell count
[5] = PKIS compounds raw data, replicate 2, HeLa cell count
[6] = PKIS compounds raw data, replicate 3, HeLa cell count
[7] = compound screen, HeLa cell count, mean of 3 replicates
[8] = compound screen, HeLa cell count, replicate 1
[9] = compound screen, HeLa cell count, replicate 2
[10] = compound screen, HeLa cell count, replicate 3
[11] = PKIS compound screen raw data, MRSA-infected HeLa cells
[12] = PKIS compound screen, MRSA-infected HeLa cells
[13] = PKIS compound screen, Yes/No call (effect without cell death)
[14] = PKIS compound screen, Yes/No call on z-scoreMRSA+
[15] = PKIS compound screen raw data, HeLa cell count, replicate 1
[16] = PKIS compound screen raw data, HeLa cell count, replicate 2
[17] = PKIS compound screen raw data, HeLa cell count, replicate 3
[18] = PKIS compound screen, HeLa cell count, mean of 3 replicates
[19] = PKIS compound screen, HeLa cell count, replicate 1
[20] = PKIS compound screen, HeLa cell count, replicate 2
[21] = PKIS compound screen, HeLa cell count, replicate 3
[22] = PKIS compound screen, Yes/No call on z-scoreHeLa
[23] = PKIS compound screen, Yes/No call
[24] = PKIS compound screen, mean of 3 replicates
[25] = PKIS compound screen, replicate 1
[26] = PKIS compound screen, replicate 2
[27] = PKIS compound screen, replicate 3

SMILES	%GFP+ rep 1 (intracellular MRSA; [1])	%GFP+ rep 2 (intracellular MRSA; [1])	%GFP+ rep 3 (intracellular MRSA; [1])	effect (intracellular MRSA; Yes/No call from z-scoreMRSA+)	hit (intracellular MRSA; [2])	z-scoreMRSA+ mean (intracellular MRSA; [3])	z-scoreMRSA+ rep 1 (intracellular MRSA; [3])	z-scoreMRSA+ rep 2 (intracellular MRSA; [3])	z-scoreMRSA+ rep 3 (intracellular MRSA; [3])	cell count rep 1 (HeLa cells; [4])	cell count rep 2 (HeLa cells; [5])	cell count rep 3 (HeLa cells; [6])	cell death (HeLa cells; Yes/No call from z-scoreHeLa)	z-scoreHeLa mean (HeLa cells; [7])	z-scoreHeLa rep 1 (HeLa cells; [8])	z-scoreHeLa rep 2 (HeLa cells; [9])	%GFP+ rep 1 (intracellular MRSA; [11])	%GFP+ rep 2 (intracellular MRSA; [11])	%GFP+ rep 3 (intracellular MRSA; [11])	hit (intracellular MRSA; [13])	further results
CN(C)C(=O)O[C@@H]1CN[C@@H](C#Cc2cc3ncnc(Nc4ccc(OCc5cccc(F)c5)c(Cl)c4)c3s2)C1 [GSK238063A]	8.6%	9.6%	9.8%	No	No	-1.52	-1.46	-1.30	-1.81	3194	3723	4546	No	-1.00	-1.43	-0.41					z-scoreHeLa rep 3 (HeLa cells; [10]): -1.16
CS(=O)(=O)CCNCc1cc(-c2cc3c(Nc4ccc(OCc5cccc(F)c5)c(Cl)c4)ncnc3s2)cs1 [GSK300014A]																	19.5%	21.9%	21.6%	No	z-scoreMRSA+ mean (intracellular MRSA; [12]): 0.70; z-scoreMRSA+ rep 1 (intracellular MRSA; [12]): 0.52; z-scoreMRSA+ rep 2 (intracellular MRSA; [12]): 1.02; z-scoreMRSA+ rep 3 (intracellular MRSA; [12]): 0.55; effect (intracellular MRSA; [14]): No; cell count rep 1 (HeLa cells; [15]): 28943; cell count rep 2 (HeLa cells; [16]): 38150; cell count rep 3 (HeLa cells; [17]): 46044; z-scoreHeLa mean (HeLa cells; [18]): 0.95; z-scoreHeLa rep 1 (HeLa cells; [19]): 1.34; z-scoreHeLa rep 2 (HeLa cells; [20]): 0.63; z-scoreHeLa rep 3 (HeLa cells; [21]): 0.88; cell death (HeLa cells; [22]): No
COc1cc2c(Nc3ccc(NC(=O)c4ccccc4)cc3)ncnc2cc1OCCCN1CCOCC1 [GSK301329A]				No	No	0.13	-0.0173	0.48	-0.09								25.2%	24.6%	21.9%		cell death (HeLa cells): No; cell count rep 1 (HeLa cells; human): 4010; cell count rep 2 (HeLa cells; human): 4052; cell count rep 3 (HeLa cells; human): 5236; z-scoreHeLa mean (HeLa cells; human): -0.15; z-scoreHeLa rep 1 (HeLa cells; human): -0.25; z-scoreHeLa rep 2 (HeLa cells; human): -0.19; z-scoreHeLa rep 3 (HeLa cells; human): -0.00157
O=S(=O)(c1cccc(F)c1)c1ccc(Nc2ncnc3cc(Br)sc23)cc1Cl [GSK306886A]	13.2%	13.8%	13.0%	No	No	-0.25	0.00934	0.10	-0.85	2697	1761	5093	No	-1.56	-1.88	-1.89					z-scoreHeLa rep 3 (HeLa cells; [10]): -0.89
CS(=O)(=O)Cc1ccc(Nc2nccc(-c3c(-c4cccc(NC(=O)C5CCCCC5)c4)nn4ncccc34)n2)cc1 [GSK350559A]				No	No	-1.91	-2.32	-1.63	-1.77				No	0.0244	0.41	-0.15	15.3%	15.9%	16.3%		cell count rep 1 (HeLa cells; [15]): 4919; cell count rep 2 (HeLa cells; [16]): 4109; cell count rep 3 (HeLa cells; [17]): 4941; z-scoreHeLa rep 3 (HeLa cells; [10]): -0.19
Cc1n[nH]c2ccc(-c3cc(OC[C@@H](N)Cc4ccccc4)cnc3-c3ccoc3)cc12 [GSK507358A]	17.4%	19.2%	18.9%							7770	8336	7240								No	effect (intracellular MRSA; [23]): No; z-scoreMRSA+ mean (intracellular MRSA; PKIS compound screen): -1.58; z-scoreMRSA+ rep 1 (intracellular MRSA; PKIS compound screen): -1.88; z-scoreMRSA+ rep 2 (intracellular MRSA; PKIS compound screen): -1.31; z-scoreMRSA+ rep 3 (intracellular MRSA; PKIS compound screen): -1.55; cell death (HeLa cells; [23]): No; z-scoreHeLa mean (HeLa cells; [24]): 1.21; z-scoreHeLa rep 1 (HeLa cells; [25]): 1.04; z-scoreHeLa rep 2 (HeLa cells; [26]): 1.55; z-scoreHeLa rep 3 (HeLa cells; [27]): 1.04
Cc1ccc(S(=O)(=O)Nc2ccc(Nc3nccc(Nc4cccc5[nH]ncc45)n3)cc2)cc1 [GSK581271A]	23.9%	26.1%	25.7%							6603	6528	6401								No	effect (intracellular MRSA; [23]): No; z-scoreMRSA+ mean (intracellular MRSA; PKIS compound screen): -0.30; z-scoreMRSA+ rep 1 (intracellular MRSA; PKIS compound screen): -0.62; z-scoreMRSA+ rep 2 (intracellular MRSA; PKIS compound screen): 0.0118; z-scoreMRSA+ rep 3 (intracellular MRSA; PKIS compound screen): -0.29; cell death (HeLa cells; [23]): No; z-scoreHeLa mean (HeLa cells; [24]): 0.40; z-scoreHeLa rep 1 (HeLa cells; [25]): 0.33; z-scoreHeLa rep 2 (HeLa cells; [26]): 0.35; z-scoreHeLa rep 3 (HeLa cells; [27]): 0.51
CS(=O)(=O)Nc1ccc(-c2cc(-c3ccccc3)cc(C(N)=O)c2N)cc1 [GSK586581A]																	17.7%	16.5%	20.3%	No	z-scoreMRSA+ mean (intracellular MRSA; [12]): -0.17; z-scoreMRSA+ rep 1 (intracellular MRSA; [12]): -0.05; z-scoreMRSA+ rep 2 (intracellular MRSA; [12]): -0.61; z-scoreMRSA+ rep 3 (intracellular MRSA; [12]): 0.16; effect (intracellular MRSA; [14]): No; cell count rep 1 (HeLa cells; [15]): 20516; cell count rep 2 (HeLa cells; [16]): 41456; cell count rep 3 (HeLa cells; [17]): 41123; z-scoreHeLa mean (HeLa cells; [18]): 0.47; z-scoreHeLa rep 1 (HeLa cells; [19]): 0.06; z-scoreHeLa rep 2 (HeLa cells; [20]): 1.24; z-scoreHeLa rep 3 (HeLa cells; [21]): 0.09; cell death (HeLa cells; [22]): No
CNC(=O)c1cc(-c2ccc(F)cc2)cc(-c2ccc(S(=O)(=O)N3CCCC3)cc2)c1N [GSK635416A]	12.0%	12.0%	12.5%							4473	4269	6877								No	effect (intracellular MRSA; [23]): No; z-scoreMRSA+ mean (intracellular MRSA; PKIS compound screen): -0.63; z-scoreMRSA+ rep 1 (intracellular MRSA; PKIS compound screen): -0.38; z-scoreMRSA+ rep 2 (intracellular MRSA; PKIS compound screen): -0.50; z-scoreMRSA+ rep 3 (intracellular MRSA; PKIS compound screen): -1.00; cell death (HeLa cells; [23]): No; z-scoreHeLa mean (HeLa cells; [24]): -0.10; z-scoreHeLa rep 1 (HeLa cells; [25]): -0.27; z-scoreHeLa rep 2 (HeLa cells; [26]): 0.000722; z-scoreHeLa rep 3 (HeLa cells; [27]): -0.04

Reference: publication PMC10999543, “Identification of kinase modulators as host-directed therapeutics against intracellular methicillin-resistant Staphylococcus aureus” (Frontiers in Cellular and Infection Microbiology, 2024)
